Measured values taken from PMC6222847, “Application of HPCCC Combined with Polymeric Resins and HPLC for the Separation of Cyclic Lipopeptides Muscotoxins A–C and Their Antimicrobial Activity” (Molecules : A Journal of Synthetic Chemistry and Natural …, 2018).
Values after ≈ are worked out from the molar mass of the structure shown. *1 amine or outer side, *2 acyl side, *3 side chain or, on linkers, in order; H or OH if unused. Where a SMILES comes first, the peptide text is derived from it. [ ]: non-standard residue; d: D form. X1 = CCCCCC(O)CC(N[*:1])C(O)C(=O)[*:2]; X2 = CC1C[C@@H](C(=O)[*:2])N([*:1])C1; d(aIle) = CC[C@H](C)[C@@H](N)C(=O)O; Dhb = C/C=C(\N)C(=O)O

Experiments:
[1] = system: Bacillus subtilis; experiment: Broth two-fold microdilution; type: cell-based; settings: B. subtilis CCM1999; Mueller Hinton broth, 300–0.0732 µg/mL (control 32–0.0625), 37 °C 16 h, triplicate; MIC = least concentration showing any inhibition in the growth
Experimental: Furthermore, compound 1 was evaluated for its antimicrobial activity against five bacterial isolates; S. aureus (CCM3824), B. subtilis (CCM1999), S. sanguinis (CCM4047), P. aeruginosa (CCM1959), E. coli (CCM2024), and eight fungal isolates; C. friedrichii (BCC020_2879), A. fumigatus (BCC020_2845), F. oxysporum (BCC020_2866), T. harzianum (BCC020_0606), B. sorokiniana (BCC020_1571), M. cucumerina (BCC020_2872), C. globosum (BCC020_2527), and A. alternata (BCC020_0609) using broth two-fold microdilution method following the standard protocol. Briefly, for broth microdilution method, the compounds were serially diluted at varying concentrations between 300 and 0.0732 µg/mL in Mueller Hinton broth (for bacteria) and Muller Hinton broth with 2% glucose (for fungi) in 96-well plates. Culture broth (0.1 mL) was added to each well containing the compound. […] MIC95 was determined as the concentration required to inhibit or kill 95% of bacterial isolates spectroscopically at 600 nm. Minimum fungicidal concentration (MFCs) were determined after 48 h incubation by removing 10 µL of the contents from wells showing no visible growth and spreading them on to Sabouraud dextrose agar plates. The plates were then incubated for 72 h and MFCs were determined as the concentrations which killed 95–100% of the inoculum. […]

[2] = Partition coefficient (K) in two-phase HPCCC solvent systems; type: physicochemical; settings: 2 mg extract in 2 mL (1 mL per phase), HPLC-ESI-HRMS
From the text: When working with HPCCC, the search for a proper two-phase solvent system has been informed to represent the major part of the work involved in the HPCCC separation. An appropriate two-phase solvent system for HPCCC has to provide a good partition coefficient (0.5 ≤ K ≤ 2.5) for the target compound. […] Additionally, for achieving a good resolution between two closely eluting peaks, the separation factor (α) between the two compounds (α = K2/K1, K2 > K1) should be greater than 1.5 [14, 26]. It is well described that compounds with smaller K values show a poor resolution because they elute closer to the solvent front. On the contrary, those compounds with larger K value are better separated but elute as wider peaks and at later elution times. In the present study, the capacity of different two-phase solvent systems (Table 1) to provide suitable K values of the compounds 1–3 was investigated. The K value is frequently estimated by using HPLC with UV detection, which is calculated by dividing the peak area of the target compound in the upper phase by that of the peak area of the same target compound in the lower phase. However, given that UV chromatogram provided insufficient peak areas for minor muscotoxins, the MS detector was thus used to estimate the K values. By using this approach, the peak area of the molecular ions corresponding to the target compounds were selectively monitored from the base peak chromatogram. As presented in the Table 1, the solvent system 10 (n-hexane, ethyl acetate, ethanol, and water in a ratio of 1:5:1:5) gave suitable K values and a proper separation factor (α) for compounds 2 and 3, as well as a short settling time. […] The improvement of the K value of compound 1 could be achieved by finding out a new solvent system or by modifying the composition of the already selected solvent system. In the present study, the system 10 was acidified by adding acetic acid leading to the system 11 (n-hexane, ethyl acetate, ethanol, water, and acetic acid, 1:5:1:5:1). […] Although the partition coefficients of the target compounds in systems 10 and 11 are strongly correlated, the system 10 ensured a sufficient selectivity (α = 1.5) between the compounds 2 and 3. […] In HPCCC, it is very well established that when the retention of stationary phase is increased, a good chromatographic resolution is achieved. A reduced flow rate of the mobile phase and a high rotational speed of the column favor the retention of the stationary phase inside the HPCCC column. In this study, the flow rate of the mobile phase in the first step and second step of the HPCCC operations was 1 mL/min and the rotational speed was set at 1200 rpm. Moreover, it was observed that a good resolution between the compounds 2 and 3 was achieved when injecting 100 mg of enriched extract.
Different two-phase solvent systems were prepared using n-hexane, ethyl acetate, ethanol, water, and acetic acid in different proportions (Table 1). The prepared solvent systems were investigated for their capacity to provide suitable partition coefficients (K) of the target compounds. In addition, given that the settling time as well as the density difference between the upper and lower phases of each two-phase solvent system are parameters associated with the retention of stationary phase in the column, they were thus estimated and used as selection criteria. For estimating the partition coefficient (Table 1) of the target compound, 2 mg of extract containing the target compounds was dissolved in 2 mL of a given two-phase solvent system (1 mL per each phase). The test tube containing the sample solution was shaken vigorously, and then left, to equilibrate the two phases, for 20 min. Equal volumes of each phase were then analyzed by HPLC-ESI-HRMS to obtain the partition coefficients (K), which were calculated by dividing the peak area of the target compound in the upper phase by the peak area of compound in the lower phase.

[3] = system: Fusarium oxysporum; experiment: microbe, parasite or virus in culture; type: cell-based; settings: Fusarium oxysporum; F. oxysporum BCC020_2866; Muller Hinton broth with 2% glucose, 300–0.0732 µg/mL (control 32–0.0625), 30 °C 48 h, triplicate; least concentration showing any inhibition; read-out: MIC
Experimental: (§1) Furthermore, compound 1 was evaluated for its antimicrobial activity against five bacterial isolates; S. aureus (CCM3824), B. subtilis (CCM1999), S. sanguinis (CCM4047), P. aeruginosa (CCM1959), E. coli (CCM2024), and eight fungal isolates; C. friedrichii (BCC020_2879), A. fumigatus (BCC020_2845), F. oxysporum (BCC020_2866), T. harzianum (BCC020_0606), B. sorokiniana (BCC020_1571), M. cucumerina (BCC020_2872), C. globosum (BCC020_2527), and A. alternata (BCC020_0609) using broth two-fold microdilution method following the standard protocol. Briefly, for broth microdilution method, the compounds were serially diluted at varying concentrations between 300 and 0.0732 µg/mL in Mueller Hinton broth (for bacteria) and Muller Hinton broth with 2% glucose (for fungi) in 96-well plates. Culture broth (0.1 mL) was added to each well containing the compound. Plates were incubated aerobically at 37 °C for 16 h (bacteria) and 30 °C for 48 h (for fungi). Negative controls were prepared separately with respective organisms in the same culture media with methanol (the dissolving solvent). Positive controls were also prepared separately with respective organisms. Erythromycin (32–0.0625 µg/mL) was used as positive control for S. aureus and S. sanguinis, gentamycin (32–0.0625 µg/mL) was used as positive control for Bacillus subtilis, E. coli, and P. aeruginosa, whereas fluconazole (32–0.0625 µg/mL) was used as positive control for all the fungal isolates. After incubation, the well with the least concentration of the compound showing any inhibition in the growth was taken as the MIC value for the respective organisms. MIC95 was determined as the concentration required to inhibit or kill 95% of bacterial isolates spectroscopically at 600 nm. Minimum fungicidal concentration (MFCs) were determined after 48 h incubation by removing 10 µL of the contents from wells showing no visible growth and spreading them on to Sabouraud dextrose agar plates. The plates were then incubated for 72 h and MFCs were determined as the concentrations which killed 95–100% of the inoculum. All the experiments were done in triplicate.

[4] = system: Chaetomium globosum; experiment: microbe, parasite or virus in culture; type: cell-based; settings: Chaetomium globosum; C. globosum BCC020_2527; Muller Hinton broth with 2% glucose, 300–0.0732 µg/mL (control 32–0.0625), 30 °C 48 h, triplicate; least concentration showing any inhibition; read-out: MIC
Experimental: as §1

[5] = system: Candida friedrichii; experiment: microbe, parasite or virus in culture; type: cell-based; settings: Yamadazyma friedrichii; C. friedrichii BCC020_2879; Muller Hinton broth with 2% glucose, 300–0.0732 µg/mL (control 32–0.0625), 30 °C 48 h, triplicate; least concentration showing any inhibition; read-out: MIC
Experimental: as §1

[6] = system: Monographella cucumerina; experiment: microbe, parasite or virus in culture; type: cell-based; settings: Plectosphaerella cucumerina; M. cucumerina BCC020_2872; Muller Hinton broth with 2% glucose, 300–0.0732 µg/mL (control 32–0.0625), 30 °C 48 h, triplicate; least concentration showing any inhibition; read-out: MIC
Experimental: as §1

[7] = system: Alternaria alternata; experiment: microbe, parasite or virus in culture; type: cell-based; settings: Alternaria alternata; A. alternata BCC020_0609; Muller Hinton broth with 2% glucose, 300–0.0732 µg/mL (control 32–0.0625), 30 °C 48 h, triplicate; least concentration showing any inhibition; read-out: MIC
Experimental: as §1

[8] = system: Aspergillus fumigatus; experiment: microbe, parasite or virus in culture; type: cell-based; settings: Aspergillus fumigatus; A. fumigatus BCC020_2845; Muller Hinton broth with 2% glucose, 300–0.0732 µg/mL (control 32–0.0625), 30 °C 48 h, triplicate; least concentration showing any inhibition; read-out: MIC
Experimental: as §1

[9] = system: Trichoderma harzianum; experiment: microbe, parasite or virus in culture; type: cell-based; settings: Trichoderma harzianum; T. harzianum BCC020_0606; Muller Hinton broth with 2% glucose, 300–0.0732 µg/mL (control 32–0.0625), 30 °C 48 h, triplicate; least concentration showing any inhibition; read-out: MIC
Experimental: as §1

[10] = system: Sclerotinia sclerotiorum; experiment: Disc diffusion antifungal assay; type: cell-based; settings: S. sclerotiorum, 250–1.5625 µg/disk, Czapek-Dox medium, mycelium growth after 4 days by image analysis, triplicate
Experimental: Due to the unavailability of enough amounts of isolated compounds, the antifungal activity for all the isolated compounds (1–3) was initially tested only against plant pathogenic fungi Sclerotinia sclerotiorum by determining the minimum inhibitory concentration (MIC) using disc diffusion assay. Compounds (1–3) were dissolved in MeOH at different concentrations and further transferred (20 µL) on layer filter paper targets (size 5 mm) to get desired concentrations of 250–1.5625 µg/disk. Discs were placed at the border of Petri dish (average 35 mm) containing Czapek-Dox medium. The mycelial target of the plant pathogenic fungus S. sclerotiorum (0.5 cm in diameter) was inoculated on the opposite sites of dish. […] The growth of fungal mycelium after 4 days in the presence of the studied compounds was evaluated using digital image analysis. […] The images (TIFF format) were converted by thresholds, and the area of binary objects corresponding to size of grown mycelium was measured and evaluated by software NIS-ELEMENTS AR ver. […] The inhibition of the mycelium growth (inhibition zone in percentages) was calculated as the difference between the measurements (in px) of the total area of fungal mycelium (negative controls) and of the area that is covered with mycelium (treated dishes).

[11] = solvent system 4, n-Hex–EtOAc–EtOH–H2O 7:3:5:5, shaken, 20 min, K = peak area UP/LP
[12] = solvent system 5, n-Hex–EtOAc–EtOH–H2O 6:4:5:5, shaken, 20 min, K = peak area UP/LP
[13] = solvent system 7, n-Hex–EtOAc–EtOH–H2O 4:5:4:5, shaken, 20 min, K = peak area UP/LP
[14] = solvent system 8, n-Hex–EtOAc–EtOH–H2O 3:5:3:5, shaken, 20 min, K = peak area UP/LP
[15] = solvent system 9, n-Hex–EtOAc–EtOH–H2O 2:5:2:5, shaken, 20 min, K = peak area UP/LP
[16] = solvent system 11, n-Hex–EtOAc–EtOH–H2O–AcOH 1:5:1:5:1, shaken, 20 min, K = peak area UP/LP

gentamycin [reference compound]
MIC [1]: 4 µg/mL

C/C=C1\NC(=O)[C@H](CO)NC(=O)[C@@H]([C@@H](C)CC)NC(=O)[C@H](Cc2ccccc2)NC(=O)[C@@H]2CC(C)CN2C(=O)CNC(=O)[C@@H](CCC(N)=O)NC(=O)C(O)C(CC(O)CCCCC)NC(=O)[C@@H]2CCCN2C(=O)[C@@H]([C@@H](C)CC)NC(=O)[C@H](CO)NC1=O (stereo partly shown) [compound 3, muscotoxin B] (cyclo([Dhb]S[d(aIle)]P[X1][dQ]G[X2]F[d(aIle)]S))
Partition Coefficient (K) of Muscotoxins ([2]; solvent system 1, n-Hex–EtOH–H2O 10:5:5, shake test tube, equilibrated 20 min, K = peak area upper phase/lower phase): 0.01
Partition Coefficient (K) of Muscotoxins ([2]; solvent system 2, n-Hex–EtOAc–EtOH–H2O 9:1:5:5, shaken, 20 min, K = peak area UP/LP): 0.01
Partition Coefficient (K) of Muscotoxins [2, 11]: 0.02
Partition Coefficient (K) of Muscotoxins [2, 12]: 0.04
Partition Coefficient (K) of Muscotoxins ([2]; solvent system 6, n-Hex–EtOAc–EtOH–H2O 5:5:5:5, shaken, 20 min, K = peak area UP/LP): 0.01
Partition Coefficient (K) of Muscotoxins [2, 13]: 0.05
Partition Coefficient (K) of Muscotoxins [2, 14]: 0.27
Partition Coefficient (K) of Muscotoxins [2, 15]: 1.22
Partition Coefficient (K) of Muscotoxins ([2]; solvent system 10, n-Hex–EtOAc–EtOH–H2O 1:5:1:5, shaken, 20 min, K = peak area UP/LP): 1.41
Partition Coefficient (K) of Muscotoxins [2, 16]: 2.45

OC(Cn1cncn1)(Cn1cncn1)c1ccc(F)cc1F [fluconazole, reference compound]
MIC [3]: 8 µg/mL (≈ 26.1 µM)
MIC [4]: 2 µg/mL (≈ 6.53 µM)
MIC [5]: 8 µg/mL (≈ 26.1 µM)
MIC [6]: 2 µg/mL (≈ 6.53 µM)
MIC [7]: 2 µg/mL (≈ 6.53 µM)
MIC [8]: 32 µg/mL (≈ 104 µM)
MIC [9]: 4 µg/mL (≈ 13.1 µM)

muscotoxin C [compound 1]
lowest dose to manifest its activity [10]: > 250 µg
Partition Coefficient (K) of Muscotoxins [2, 11]: 0.01
Partition Coefficient (K) of Muscotoxins [2, 12]: 0.01
Partition Coefficient (K) of Muscotoxins [2, 13]: 0.02
Partition Coefficient (K) of Muscotoxins [2, 14]: 0.08
Partition Coefficient (K) of Muscotoxins [2, 15]: 0.40
Partition Coefficient (K) of Muscotoxins [2, 16]: 1.09
